US20230293407A1, “Compositions Comprising (Bio)-Alkanediols with Antimicrobials for Product Protection” (Symrise AG, priority 2020, published 2023)
Like-named read-outs stand apart in the source and are kept apart here.

Tests used:
Assay in all cases: preservation efficacy test (PET), European Pharmacopoeia 5.1.3
Format in all cases: cell-based
Staphylococcus aureus = test system: Staphylococcus aureus
Escherichia coli = test system: Escherichia coli
Aspergillus brasiliensis = test system: Aspergillus brasiliensis
Candida albicans = conditions: for count at 2 days: 2 days after inoculation
Pseudomonas aeruginosa = test system: Pseudomonas aeruginosa
[1] = SA, 2 days after inoculation, use concentration in label
[2] = SA, 7 days after inoculation, use concentration in label
[3] = SA, 14 days after inoculation, use concentration in label
[4] = SA, 28 days after inoculation, use concentration in label
[5] = EC, 2 days after inoculation, use concentration in label
[6] = EC, 7 days after inoculation, use concentration in label
[7] = EC, 14 days after inoculation, use concentration in label
[8] = EC, 28 days after inoculation, use concentration in label
[9] = AB, 2 days after inoculation, use concentration in label
[10] = AB, 7 days after inoculation, use concentration in label
[11] = AB, 14 days after inoculation, use concentration in label
[12] = AB, 28 days after inoculation, use concentration in label
[13] = CA, 7 days after inoculation, use concentration in label
[14] = CA, 14 days after inoculation, use concentration in label
[15] = CA, 28 days after inoculation, use concentration in label
[16] = PA, 2 days after inoculation, use concentration in label
[17] = PA, 7 days after inoculation, use concentration in label
[18] = PA, 14 days after inoculation, use concentration in label
[19] = PA, 28 days after inoculation, use concentration in label
[20] = 2 days after inoculation, substance at given % in test formulation
[21] = 7 days after inoculation, substance at given % in test formulation
[22] = 14 days after inoculation, substance at given % in test formulation
[23] = 28 days after inoculation, substance at given % in test formulation

| SMILES | count at 2 days (Staphylococcus aureus; [1]) | count at 7 days (Staphylococcus aureus; [2]) | count at 14 days (Staphylococcus aureus; [3]) | count at 28 days (Staphylococcus aureus; [4]) | count at 2 days (Escherichia coli; [5]) | count at 7 days (Escherichia coli; [6]) | count at 14 days (Escherichia coli; [7]) | count at 28 days (Escherichia coli; [8]) | count at 2 days (Aspergillus brasiliensis; [9]) | count at 7 days (Aspergillus brasiliensis; [10]) | count at 14 days (Aspergillus brasiliensis; [11]) | count at 28 days (Aspergillus brasiliensis; [12]) | count at 2 days (Candida albicans; CA, use concentration in label) | count at 7 days (Candida albicans; [13]) | count at 14 days (Candida albicans; [14]) | count at 28 days (Candida albicans; [15]) | count at 2 days (Pseudomonas aeruginosa; [16]) | count at 7 days (Pseudomonas aeruginosa; [17]) | count at 14 days (Pseudomonas aeruginosa; [18]) | count at 28 days (Pseudomonas aeruginosa; [19]) | also measured |
| --- | --- | --- | --- | --- | --- | --- | --- | --- | --- | --- | --- | --- | --- | --- | --- | --- | --- | --- | --- | --- | --- |
| O=P(O)(O)O[C@H]1[C@H](OP(=O)(O)O)[C@@H](OP(=O)(O)O)[C@H](OP(=O)(O)O)[C@@H](OP(=O)(O)O)[C@H]1OP(=O)(O)O [0.4% phytic acid] | 1 | 1 | 1 | 1 | 1 | 1 | 1 | 1 | 510.000 | 290.000 | 180.000 | 150.000 | 640.000 | 550.000 | 570.000 | 520.000 | 1 | 1 | 1 | 1 | – |
| OCCCO [0.8% 1,3-propanediol] | 180.000 | 58.000 | 820 | 1 | 350.000 | 74.000 | 4.100 | 1 | 900.000 | 650.000 | 270.000 | 380 | – | 650.000 | 630.000 | 1 | 290 | 200 | 180 | 1 | – |
| O=C([O-])CC[C@@H](C(=O)[O-])N(CC(=O)[O-])CC(=O)[O-].[Na+].[Na+].[Na+].[Na+] | – | 810.000 | – | – | 50.000 | 23.000 | 450.000 | – | – | 440.000 | 720.000 | 660.000 | – | – | 200.000 | 390.000 | 43.000 | 95.000 | 510.000 | 350.000 | – |
| O=C([O-])c1ccccc1.[Na+] [0.2% Sodium Benzoate] | – | – | – | – | – | – | – | – | – | – | – | – | – | – | – | – | – | – | – | – | count at 2 days (Staphylococcus aureus): 320.000; count at 7 days (Staphylococcus aureus): 74.000; count at 14 days (Staphylococcus aureus): 1; count at 28 days (Staphylococcus aureus): 1; count at 2 days (Escherichia coli): 130.000; count at 7 days (Escherichia coli): 11.000; count at 14 days (Escherichia coli): 1; count at 28 days (Escherichia coli): 1; count at 2 days (Aspergillus brasiliensis): 760.000; count at 7 days (Aspergillus brasiliensis): 880.000; count at 14 days (Aspergillus brasiliensis): 200.000; count at 28 days (Aspergillus brasiliensis): 230.000; count at 7 days (Candida albicans): 250.000; count at 28 days (Candida albicans): 1; count at 2 days (Pseudomonas aeruginosa): 1; count at 7 days (Pseudomonas aeruginosa): 1; count at 14 days (Pseudomonas aeruginosa): 1; count at 28 days (Pseudomonas aeruginosa): 1 |
| CC(=O)c1ccc(O)cc1 [0.1% 4-Hydroxyacetophenone (SymSave H)] | – | – | – | – | – | – | – | – | – | – | – | – | – | – | – | – | – | – | – | – | SA germ count, 2 days (Staphylococcus aureus; [20]): 210.000; SA germ count, 7 days (Staphylococcus aureus; [21]): 1; SA germ count, 14 days (Staphylococcus aureus; [22]): 1; SA germ count, 28 days (Staphylococcus aureus; [23]): 1; EC germ count, 7 days (Escherichia coli; [21]): 87.000; EC germ count, 14 days (Escherichia coli; [22]): 2.400; EC germ count, 28 days (Escherichia coli; [23]): 1; AB germ count, 7 days (Aspergillus brasiliensis; [21]): 680.000; AB germ count, 14 days (Aspergillus brasiliensis; [22]): 58.000; AB germ count, 28 days (Aspergillus brasiliensis; [23]): 18.000; CA germ count, 7 days (Candida albicans; [21]): 81.000; CA germ count, 14 days (Candida albicans; [22]): 120; CA germ count, 28 days (Candida albicans; [23]): 1; PA germ count, 2 days (Pseudomonas aeruginosa; [20]): 1; PA germ count, 7 days (Pseudomonas aeruginosa; [21]): 1; PA germ count, 14 days (Pseudomonas aeruginosa; [22]): 1; PA germ count, 28 days (Pseudomonas aeruginosa; [23]): 1 |
| CC(O)C(=O)[O-].[Na+] (centres unmarked) [0.8% sodium lactate (50%)] | 190.000 | 150.000 | 170.000 | 18.000 | 440.000 | 210.000 | 210.000 | 850 | 910.000 | 730.000 | 440.000 | 190.000 | 930.000 | 800.000 | 890.000 | 260.000 | 1 | 1 | 1 | 1 | – |
